# Experiments:
# CtBP2 = molecular target: T1, CtBP2 (Homo sapiens, UniProt P56545); test: DARTS assay, CtBP2; type: binding
# T1 construct: expressed in transfected cells; host or cells: human UCB-MSC, lysate
# Procedure: (§1) To identify proteins binding to compounds of the present invention, YJ101 (Chemical Formula 1), YJ102 (Chemical Formula 2), and YJ103 (Chemical Formula 3), in human umbilical cord blood-derived mesenchymal stem cells (UCB-MSCs), DART assay was performed. Specifically, UCB-MSCs (Kang Stem Cell, Passage #6) were dispensed into a 100 mm culture dish and incubated in a KSB-3 medium (Cat. K3901, Kang Stem Cell) containing 10% FBS (Cat. 16000044), and then collected and washed with PBS. Thereafter, the cells were added with an IP50 lysis buffer [50 mM Tris-HCl (pH 7.4), 150 mM NaCl, 2 mM MgCl2, and 0.1% NP40], sonicated, and centrifuged at 13,000×g for 10 minutes at 4° C. to obtain the supernatant. The supernatant was added with 1/10 volume of 10×TNC buffer [500 mM Tris-HCl (pH 8.0), 500 mM NaCl, and 100 mM CaCl2)], and protein concentration was measured using a Bradford method. Thereafter, 9 μl of a cell lysate and 1 μl of YJ101 (20 or M), YJ102 (20 or 30 μM), or YJ103 (20 or 40 μM) were mixed in a microcentrifuge tube and incubated at room temperature for 1 hour. A control group was treated with 1 μl of DMSO. After incubation, 1 μl (1 mg/ml) of Pronase (Cat. 10 165 921 001, Roche) diluted to 1 mg/ml using a 1×TNC buffer was added to the microcentrifuge tube and incubated at 37° C. for 15 minutes. After incubation, ⅕ volume of a 5×SDS-PAGE loading buffer was added, heated at 100° C. for 5 minutes, and then SDS-PAGE and Coomassie blue staining were performed. In addition, UCB-MSCs were dispensed at 4×10^5 cells/ml in a 60 mm culture dish, and after 24 hours, 4 μg of FLAG-CtBP1 or FLAG-CtBP2 DNA was transfected using 4 μl of jetPRIME. After 48 hours, the cells were collected, and proteins were extracted and quantified using the same method as above. DARTS assay was performed with the cell lysate of CtBP1 and Y102 labeled with FLAG, and Western blot assay was performed with a flag antibody (Cat. F3165, Sigma).
# human UCB-MSCs = test: Tuj1 immunochemical assay with CtBP inhibitors; type: cell-based; conditions: 30 μM, 5 days
# Procedure: To determine CtBP1-mediated ciNSC5 differentiation by YJ102 in human UCB-MSCs, a CTBP1 mechanism by treatment with NSC95397 or 4-methylthio-2-oxobutanoate (MTOB) was analyzed by immunochemical assay. Specifically, UCB-MSCs were dispensed at 2.1×10^4 cells/well in a 12-well plate containing an 18 mm cover glass (circular) (a DMSO control group was dispensed at 3.5×10^3 cells/well). […] The culture medium was removed, washed with PBS, and fixed with 4% paraformaldehyde at room temperature for 10 minutes. After washed three times with PBS, the cells were permeabilized with PBS-T containing 0.5% Triton X-100 for 10 minutes, washed with PBS-T three times for 10 minutes each, and then blocked with a blocking solution (PBS-T containing 5% BSA and 5% goat serum) for 1 hour. Thereafter, the cells were treated with anti-Tuj1 antibody (Cat. 801201, BioLegend) diluted 1/5000 in a blocking solution and incubated at 4° C. overnight. The next day, the cells were washed 10 times for 10 minutes each with PBS-T, and then treated with anti-mouse IgG-cy3 (Cat. 111-165-003, Jackson ImmunoResearch) diluted 1/2000 in a blocking solution, and incubated for 1 hour in dark conditions. Next, the cells were washed 10 times for 10 minutes each with PBS-T, mounted with a mounting solution containing DAPI, and then observed with a confocal microscope.
# UCB-MSCs = test: Tuj1 immunochemical assay, direct conversion of UCB-MSCs into ciNSC5; type: cell-based, human; conditions: 30 μM, 5 days
# Procedure: Immunochemical assay was performed to confirm whether UCB-MSCs were transdifferentiated into ciNSC5, Tuj1-positive neural progenitor cells, by the compounds of the present invention, YJ101, YJ102, and YJ103. Specifically, UCB-MSCs were dispensed at 2.1×10^4 cells/well in a 12-well plate containing an 18 mm cover glass (a DMSO control group was dispensed at 3.5×10^3 cells/well). […] The culture medium was removed, washed with PBS, and then fixed with 4% paraformaldehyde at room temperature for 10 minutes. After washed three times with PBS, the cells were permeabilized with PBS-T containing 0.5% Triton X-100 for 10 minutes, washed with PBS-T three times for 10 minutes each, and then blocked with a blocking solution (PBS-T containing 5% BSA and 5% goat serum) for 1 hour. Thereafter, the cells were treated with anti-Tuj1 antibody (Cat. 801201, BioLegend) diluted 1/5000 in a blocking solution and incubated at 4° C. overnight. The next day, the cells were washed 10 times for 10 minutes each with PBS-T, and then treated with anti-mouse IgG-FITC diluted 1/500 in a blocking solution, and incubated for 1 hour in dark conditions. Next, the cells were washed 10 times for 10 minutes each with PBS-T, mounted with a mounting solution containing DAPI, and then observed with a confocal microscope.
# CtBP1 = CtBP1 (Homo sapiens, UniProt Q13363); test: DARTS assay, CtBP1; type: binding; design: expressed in transfected cells; host or cells: human UCB-MSC (Kang Stem Cell), lysate
# Procedure: as §1
compound,measurement,setting,value
CCc1ccc(N(C(=O)COC)c2nc3cc(Cl)ccc3o2)cc1 [YJ102],overexpressed CtBP2 protection from degradation by pronase (DARTS),CtBP2; FLAG-CtBP2 transfected UCB-MSC lysate,protected
same,CtBP2 protection from degradation by pronase (DARTS),"CtBP2; endogenous CtBP2, UCB-MSC lysate",protected
same,binding to CtBP2,CtBP2; human UCB-MSC,bound to CtBP1 and CtBP2
same,differentiation of UCB-MSCs into ciNSC5 through CtBP1 regulation,human UCB-MSCs,differentiated UCB-MSCs into ciNSC5
same,direct conversion from UCB-MSCs to ciNSC5,UCB-MSCs,induced direct conversion
same,expression of Tuj1,UCB-MSCs; UCB-MSC,increased
same,overexpressed CtBP1 (flag-CtBP1) protection from degradation by pronase (DARTS),"CtBP1; FLAG-CtBP1 transfected UCB-MSC lysate, YJ101 (20 or M), YJ102 (20 or 30 μM), YJ103 (20 or 40 μM)",protected
same,CtBP1 protection from degradation by pronase (DARTS),"CtBP1; endogenous CtBP1, UCB-MSC lysate, YJ102 20 or 30 μM",protected
same,binding to CtBP1,CtBP1; human UCB-MSC,bound to CtBP1
